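Step 1: Grow cells in 96-well plates. Step 2: Expose to compound for 48 hours at 5 concentrations. Step 3: Interpolate endpoints linearly; if unreached, use highest concentration. The concentration for 50% growth inhibition is given as GI50.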 Active and inactive are the calls of the source. No stated cut-off is given here; in the data, active = GI50 up to about 1.1 µM and inactive = higher.
Tests used:
Experiment in all cases: inhibition of tumour cell growth, NCI panel, 48 h
[1] = system: M14
[2] = system: HCT-15
[3] = system: MCF7
[4] = system: U-251
[5] = system: UO-31
[6] = system: UACC-62
[7] = system: SNB-75
[8] = system: HOP-62
[9] = system: A549
[10] = system: SW-620
[11] = system: Hs-578T
[12] = system: PC-3
[13] = system: SK-MEL-2
[14] = system: NCI-H460
[15] = system: HCT-116
[16] = system: SF-268
[17] = system: A498
[18] = system: MDA-MB-435
[19] = system: CAKI-1
[20] = system: NCI-H23

Structure (SMILES)	GI50 [1]	GI50 [2]	GI50 [3]	GI50 [4]	GI50 [5]	GI50 [6]	GI50 [7]	GI50 [8]	GI50 [9]	GI50 [10]	GI50 [11]	GI50 [12]	GI50 [13]	GI50 [14]	GI50 [15]	GI50 [16]	GI50 [17]	GI50 [18]	GI50 [19]	GI50 [20]
CN(C)/N=N/c1nc2c(c(=O)n(C)c(=O)n2C)n1C	> 100 µM (inactive)	> 100 µM	7.5 µM (inactive)	> 100 µM (inactive)	> 100 µM (inactive)	> 100 µM (inactive)	> 100 µM (inactive)	> 100 µM (inactive)	> 100 µM (inactive)	> 100 µM (inactive)	> 100 µM (inactive)	> 100 µM (inactive)	> 100 µM (inactive)	> 100 µM (inactive)	> 100 µM (inactive)	> 100 µM (inactive)	> 100 µM (inactive)	> 100 µM (inactive)	> 100 µM (inactive)	–
Cc1nc2cn3c(c2c(=O)[nH]1)CCCCC3	> 100 µM (inactive)	> 100 µM	> 100 µM (inactive)	> 100 µM (inactive)	> 100 µM (inactive)	> 100 µM (inactive)	> 100 µM (inactive)	> 100 µM (inactive)	–	> 100 µM (inactive)	> 100 µM (inactive)	> 100 µM (inactive)	> 100 µM (inactive)	> 100 µM (inactive)	> 100 µM (inactive)	> 100 µM (inactive)	> 100 µM (inactive)	> 100 µM (inactive)	> 100 µM (inactive)	> 100 µM (inactive)
CN1CCc2c(sc3ncn(Nc4ccc(Cl)cc4)c(=N)c23)C1	> 100 µM (inactive)	> 100 µM	> 100 µM (inactive)	> 100 µM (inactive)	–	> 100 µM (inactive)	> 100 µM (inactive)	> 100 µM (inactive)	> 100 µM (inactive)	> 100 µM (inactive)	> 100 µM (inactive)	> 100 µM (inactive)	> 100 µM (inactive)	> 100 µM (inactive)	> 100 µM (inactive)	> 100 µM (inactive)	> 100 µM (inactive)	> 100 µM (inactive)	> 100 µM (inactive)	> 100 µM (inactive)
CCN(CC)C(=S)Oc1cc2oc(=O)cc(C)c2cc1Cl	> 100 µM (inactive)	> 100 µM	23.9 µM (inactive)	42.2 µM (inactive)	> 100 µM (inactive)	26.9 µM (inactive)	–	54 µM (inactive)	> 100 µM (inactive)	> 100 µM (inactive)	57.7 µM (inactive)	> 100 µM (inactive)	8.51 µM (inactive)	> 100 µM (inactive)	> 100 µM (inactive)	36.1 µM (inactive)	> 100 µM (inactive)	> 100 µM (inactive)	> 100 µM (inactive)	> 100 µM (inactive)
NC(=O)N=C(N(Cc1ccccc1)Cc1ccccc1)N(Cc1ccccc1)Cc1ccccc1	–	> 28.4 µM	7.29 µM (inactive)	7.45 µM (inactive)	> 100 µM (inactive)	8.39 µM (inactive)	13.3 µM (inactive)	15.3 µM (inactive)	> 100 µM (inactive)	> 24.3 µM (inactive)	97.5 µM (inactive)	4.17 µM (inactive)	> 100 µM (inactive)	–	3.37 µM (inactive)	37.2 µM (inactive)	39.8 µM (inactive)	3.72 µM (inactive)	> 100 µM (inactive)	9.42 µM (inactive)
Cc1cc(S(=O)(=O)/N=C(\NN)NNc2cccc(C(F)(F)F)n2)c(S)cc1Cl	17.9 µM (inactive)	18.8 µM	> 10 µM (inactive)	16.8 µM (inactive)	18.9 µM (inactive)	16.7 µM (inactive)	14.6 µM (inactive)	19.6 µM (inactive)	22.8 µM (inactive)	18.5 µM (inactive)	22.2 µM (inactive)	17.3 µM (inactive)	25.5 µM (inactive)	26.9 µM (inactive)	21.3 µM (inactive)	21.4 µM (inactive)	22.1 µM (inactive)	18.2 µM (inactive)	20.8 µM (inactive)	–
O=C1Nc2c(Cl)cc(Cl)cc2C1=O	19.6 µM (inactive)	20.6 µM	18.5 µM (inactive)	21.2 µM (inactive)	19.3 µM (inactive)	15.8 µM (inactive)	6.03 µM (inactive)	18.5 µM (inactive)	19.3 µM (inactive)	18.5 µM (inactive)	16.4 µM (inactive)	24.3 µM (inactive)	13.9 µM (inactive)	21 µM (inactive)	19.3 µM (inactive)	–	23.2 µM (inactive)	4.27 µM (inactive)	17.9 µM (inactive)	23.5 µM (inactive)
Cc1cc2c(cc1C)[n+]([O-])c(N1CCN(c3ccc([N+](=O)[O-])cc3)CC1)c(C#N)[n+]2[O-]	35.9 µM (inactive)	85.3 µM	28.6 µM (inactive)	17 µM (inactive)	23.5 µM (inactive)	20.3 µM (inactive)	4.61 µM (inactive)	15.2 µM (inactive)	29.8 µM (inactive)	> 100 µM (inactive)	34.6 µM (inactive)	32.3 µM (inactive)	22 µM (inactive)	20.3 µM (inactive)	61.7 µM (inactive)	41.7 µM (inactive)	35 µM (inactive)	> 100 µM (inactive)	83 µM (inactive)	25.6 µM (inactive)

From ChEMBL document CHEMBL1201862, “PubChem BioAssay data set” (2004)
